Bridge positions count the residues as written; N and C are the ends. Square brackets hold non-standard residues; d marks the D form. Peptide text beside a SMILES is read from it. * marks the point of attachment. 5FAM = O=C1OC2(c3ccc(O)cc3Oc3cc(O)ccc32)c2ccc(C(=O)*)cc21; R8 = C=CCCCCCC[C@@](C)(N)C(=O)O; S5 = C=CCCC[C@](C)(N)C(=O)O; Nle = CCCC[C@H](N)C(=O)O

The test system of series [1] is Expi293 cells. As to conditions: percentage of Helicons in cells after treatment and wash; Expi293 cells 1x10^6 cells/mL, 22 hours, 37°C; washed twice with DPBS; MS quantitation, single-point calibration; n=2, mean ± SD.
Series [2] deals with Expi293 cells. As to conditions: luminescence at Tfinal (22 hours) divided by Tinitial, measure of ATP levels, reflective of cell health.

Regarding `CC[C@H](C)[C@H](NC(C)=O)C(=O)N[C@@H](CC(C)C)C(=O)N[C@@H](CCC(N)=O)C(=O)N[C@]1(C)CCCCCCC=CCCC[C@@](C)(C(=O)N[C@@H](Cc2c[nH]cn2)C(=O)N[C@@H](Cc2ccc(O)cc2)C(=O)N[C@@H](CCC(N)=O)C(N)=O)NC(=O)[C@H](CO)NC(=O)[C@H](Cc2ccccc2)NC(=O)[C@H](C)NC(=O)[C@H](C)NC(=O)[C@H](CCC(=O)O)NC(=O)[C@H](Cc2ccc(O)cc2)NC1=O` [FP07860] (Ac-ILQ[R8]YEAAFS[S5]HYQ-NH2; staple 4-11), in the series with Expi293 cells [1], the “Helicon in cells ± SD (%)” value is 0.3 ± 0.0%. In addition, the “CellTiter-Glo fold change ± SD” value in the series with Expi293 cells [2] turned out to be 1.2 ± 0.03.

As for `CCCC[C@H](NC(=O)[C@@H](NC(C)=O)C(C)C)C(=O)N[C@@H](CCC(=O)O)C(=O)N[C@]1(C)CCCCCCC=CCCC[C@@](C)(C(=O)N[C@@H](Cc2c[nH]cn2)C(=O)N[C@@H](Cc2ccc(O)cc2)C(=O)N[C@H](C(N)=O)C(C)C)NC(=O)[C@H]([C@@H](C)CC)NC(=O)[C@H](Cc2ccccc2)NC(=O)[C@H](C)NC(=O)[C@H](C)NC(=O)[C@H](CCC(=O)O)NC(=O)[C@H](Cc2ccc(O)cc2)NC1=O` [FP07855] (Ac-V[Nle]E[R8]YEAAFI[S5]HYV-NH2; staple 4-11), the “Helicon in cells ± SD (%)” value with Expi293 cells [1] is on record as 16.4 ± 0.6%. For the same compound, the “CellTiter-Glo fold change ± SD” value with Expi293 cells [2] worked out at 1.2 ± 0.10.

As to `CCCC[C@H](NC(=O)[C@@H](NC(C)=O)C(C)C)C(=O)N[C@@H](CCC(=O)O)C(=O)N[C@]1(C)CCCCCCC=CCCC[C@@](C)(C(=O)N[C@@H](Cc2c[nH]cn2)C(=O)N[C@@H](Cc2ccc(O)cc2)C(=O)N[C@H](C(N)=O)C(C)C)NC(=O)[C@H]([C@@H](C)CC)NC(=O)[C@H](Cc2ccccc2)NC(=O)[C@H](C)NC(=O)[C@H](C)NC(=O)[C@H](CCC(N)=O)NC(=O)[C@H](Cc2ccc(O)cc2)NC1=O` [FP07867] (Ac-V[Nle]E[R8]YQAAFI[S5]HYV-NH2; staple 4-11), the “Helicon in cells ± SD (%)” value in the series on Expi293 cells [1] is on record as 8.6 ± 0.4%. The “CellTiter-Glo fold change ± SD” value in the series on Expi293 cells [2] worked out at 1.2 ± 0.03.

Take `CCCC[C@H](NC(=O)[C@@H](NC(C)=O)[C@@H](C)CC)C(=O)N[C@@H](C)C(=O)N[C@]1(C)CCCCCCC=CCCC[C@@](C)(C(=O)N[C@@H](CCC(N)=O)C(=O)N[C@@H](Cc2ccc(O)cc2)C(=O)N[C@@H](CC(N)=O)C(N)=O)NC(=O)[C@H](Cc2c[nH]c3ccccc23)NC(=O)[C@H](Cc2ccccc2)NC(=O)[C@H](C)NC(=O)[C@H](C)NC(=O)[C@H](CCC(N)=O)NC(=O)[C@H](Cc2ccc(O)cc2)NC1=O` [FP08023] (Ac-I[Nle]A[R8]YQAAFW[S5]QYN-NH2; staple 4-11): the “Helicon in cells ± SD (%)” value with Expi293 cells [1] was 3.0 ± 0.3%. Besides, the “CellTiter-Glo fold change ± SD” value in the series with Expi293 cells [2] turned out to be 1.2 ± 0.03.

Take `CCCC[C@H](NC(=O)[C@@H](NC(C)=O)C(C)C)C(=O)N[C@@H](CCC(=O)O)C(=O)N[C@]1(C)CCCCCCC=CCCC[C@@](C)(C(=O)N[C@@H](Cc2c[nH]cn2)C(=O)N[C@@H](Cc2ccc(O)cc2)C(=O)N[C@H](C(N)=O)C(C)C)NC(=O)[C@H]([C@@H](C)CC)NC(=O)[C@H](Cc2ccccc2)NC(=O)[C@H](C)NC(=O)[C@H](C)NC(=O)[C@H](CCC(=O)O)NC(=O)[C@H](Cc2ccc(O)cc2)NC1=O` [FP07856] (Ac-V[Nle]E[R8]YEAAFI[S5]HYV-NH2; staple 4-11): the “Helicon in cells ± SD (%)” value in the series on Expi293 cells [1] was found to be 15.5 ± 0.9%. Moreover, in the series with Expi293 cells [2], the “CellTiter-Glo fold change ± SD” value was determined as 1.3 ± 0.12.

`CCCC[C@H](NC(=O)[C@@H](NC(C)=O)C(C)C)C(=O)N[C@@H](CCC(N)=O)C(=O)N[C@]1(C)CCCCCCC=CCCC[C@@](C)(C(=O)N[C@@H](Cc2c[nH]cn2)C(=O)N[C@@H](Cc2ccc(O)cc2)C(=O)N[C@H](C(N)=O)C(C)C)NC(=O)[C@H]([C@@H](C)CC)NC(=O)[C@H](Cc2ccccc2)NC(=O)[C@H](C)NC(=O)[C@H](C)NC(=O)[C@H](CCC(N)=O)NC(=O)[C@H](Cc2ccc(O)cc2)NC1=O` [FP07871] (Ac-V[Nle]Q[R8]YQAAFI[S5]HYV-NH2; staple 4-11): the “Helicon in cells ± SD (%)” value in the series on Expi293 cells [1] came to 7.0 ± 0.3%. Moreover, the “CellTiter-Glo fold change ± SD” value in the series with Expi293 cells [2] was 1.2 ± 0.03.

Consider `CCCC[C@H](NC(=O)[C@@H](NC(C)=O)C(C)C)C(=O)N[C@@H](CCC(N)=O)C(=O)N[C@]1(C)CCCCCCC=CCCC[C@@](C)(C(=O)N[C@@H](Cc2c[nH]cn2)C(=O)N[C@@H](Cc2ccc(O)cc2)C(=O)N[C@H](C(N)=O)C(C)C)NC(=O)[C@H]([C@@H](C)CC)NC(=O)[C@H](Cc2ccccc2)NC(=O)[C@H](C)NC(=O)[C@H](C)NC(=O)[C@H](CCC(=O)O)NC(=O)[C@H](Cc2ccc(O)cc2)NC1=O` [FP07863] (Ac-V[Nle]Q[R8]YEAAFI[S5]HYV-NH2; staple 4-11), for which the “Helicon in cells ± SD (%)” value with Expi293 cells [1] is on record as 23.5 ± 6.5%. Besides, the “CellTiter-Glo fold change ± SD” value in the series on Expi293 cells [2] turned out to be 1.2 ± 0.02.

As to `CC[C@H](C)[C@H](NC(=O)[C@H](Cc1ccc(O)cc1)NC(=O)[C@H](CCC(N)=O)NC(=O)[C@]1(C)CCCC=CCCCCCC[C@@](C)(NC(=O)[C@H](Cc2c[nH]cn2)NC(=O)[C@@H](NC(=O)[C@@H](NC(C)=O)[C@@H](C)CC)[C@@H](C)CC)C(=O)N[C@@H](Cc2ccc(O)cc2)C(=O)N[C@@H](CCC(=O)O)C(=O)N[C@@H](C)C(=O)N[C@@H](C)C(=O)N[C@@H](Cc2ccccc2)C(=O)N[C@@H](Cc2ccccc2)C(=O)N1)C(N)=O` [FP08012] (Ac-IIH[R8]YEAAFF[S5]QYI-NH2; staple 4-11), in the series with Expi293 cells [1], the “Helicon in cells ± SD (%)” value came out at 5.4 ± 0.9%. Also, the “CellTiter-Glo fold change ± SD” value in the series on Expi293 cells [2] came out at 1.1 ± 0.04.

Consider `CCCC[C@H](NC(=O)[C@H](Cc1ccc(O)cc1)NC(=O)[C@H](CCC(N)=O)NC(=O)[C@]1(C)CCCC=CCCCCCC[C@@](C)(NC(=O)[C@H](CCC(=O)O)NC(=O)[C@H](CC(C)C)NC(=O)[C@@H](NC(C)=O)[C@@H](C)CC)C(=O)N[C@@H](Cc2ccc(O)cc2)C(=O)N[C@@H](CCC(=O)O)C(=O)N[C@@H](C)C(=O)N[C@@H](C)C(=O)N[C@@H](Cc2ccccc2)C(=O)N[C@@H](CCC(=O)O)C(=O)N1)C(N)=O` [FP08018] (Ac-ILE[R8]YEAAFE[S5]QY[Nle]-NH2; staple 4-11), for which the “Helicon in cells ± SD (%)” value in the series on Expi293 cells [1] is 1.0 ± 0.1%. Moreover, the “CellTiter-Glo fold change ± SD” value with Expi293 cells [2] came out at 1.1 ± 0.05.

Regarding `CC(C)C[C@H](NC(=O)[C@H](C)NC(=O)CNC(=O)[C@H](CCCCN)NC(=O)[C@H](CCCNC(=N)N)NC(=O)[C@H](C)NC(=O)[C@H](Cc1ccccc1)NC(=O)[C@H](CCCNC(=N)N)NC(=O)[C@H](CCC(N)=O)NC(=O)c1ccc2c(c1)C(=O)OC21c2ccc(O)cc2Oc2cc(O)ccc21)C(=O)N[C@@H](CCCNC(=N)N)C(=O)N[C@@H](CCC(N)=O)C(=O)N[C@@H](CCCCN)C(=O)N[C@@H](CC(N)=O)C(=O)N[C@H](C(N)=O)C(C)C` [FP47831, reference compound] (5FAM-QRFARKGALRQKNV-NH2), the “Helicon in cells ± SD (%)” value in the series on Expi293 cells [1] is 0.0 ± 0.0%. Further, the “CellTiter-Glo fold change ± SD” value in the series with Expi293 cells [2] turned out to be 1.1 ± 0.02.

On to `CCCC[C@H](NC(=O)[C@H](Cc1ccc(O)cc1)NC(=O)[C@H](CCC(N)=O)NC(=O)[C@]1(C)CCCC=CCCCCCC[C@@](C)(NC(=O)[C@H](CCC(=O)O)NC(=O)[C@H](CC(C)C)NC(=O)[C@@H](NC(C)=O)[C@@H](C)CC)C(=O)N[C@@H](Cc2ccc(O)cc2)C(=O)N[C@@H](CCC(=O)O)C(=O)N[C@@H](C)C(=O)N[C@@H](C)C(=O)N[C@@H](Cc2ccccc2)C(=O)N[C@@H](CCC(=O)O)C(=O)N1)C(N)=O` [FP08017] (Ac-ILE[R8]YEAAFE[S5]QY[Nle]-NH2; staple 4-11), for which, in the series on Expi293 cells [1], the “Helicon in cells ± SD (%)” value is listed as 0.6 ± 0.1%. The “CellTiter-Glo fold change ± SD” value in the series with Expi293 cells [2] was 1.2 ± 0.01.

As for `CCCC[C@H](NC(=O)[C@@H](NC(C)=O)C(C)C)C(=O)N[C@@H](CCC(N)=O)C(=O)N[C@]1(C)CCCCCCC=CCCC[C@@](C)(C(=O)N[C@@H](Cc2c[nH]cn2)C(=O)N[C@@H](Cc2ccc(O)cc2)C(=O)N[C@H](C(N)=O)C(C)C)NC(=O)[C@H]([C@@H](C)CC)NC(=O)[C@H](Cc2ccccc2)NC(=O)[C@H](C)NC(=O)[C@H](C)NC(=O)[C@H](CCC(N)=O)NC(=O)[C@H](Cc2ccc(O)cc2)NC1=O` [FP07872] (Ac-V[Nle]Q[R8]YQAAFI[S5]HYV-NH2; staple 4-11), in the series with Expi293 cells [1], the “Helicon in cells ± SD (%)” value is reported as 11.7 ± 1.6%. Moreover, in the series with Expi293 cells [2], the “CellTiter-Glo fold change ± SD” value came to 1.1 ± 0.02.

As for `CC[C@H](C)[C@H](NC(=O)[C@H](Cc1ccc(O)cc1)NC(=O)[C@H](CCC(N)=O)NC(=O)[C@]1(C)CCCC=CCCCCCC[C@@](C)(NC(=O)[C@H](Cc2c[nH]cn2)NC(=O)[C@@H](NC(=O)[C@@H](NC(C)=O)[C@@H](C)CC)[C@@H](C)CC)C(=O)N[C@@H](Cc2ccc(O)cc2)C(=O)N[C@@H](CCC(=O)O)C(=O)N[C@@H](C)C(=O)N[C@@H](C)C(=O)N[C@@H](Cc2ccccc2)C(=O)N[C@@H](Cc2ccccc2)C(=O)N1)C(N)=O` [FP08011] (Ac-IIH[R8]YEAAFF[S5]QYI-NH2; staple 4-11), the “Helicon in cells ± SD (%)” value in the series on Expi293 cells [1] is 6.5 ± 0.5%. Moreover, the “CellTiter-Glo fold change ± SD” value with Expi293 cells [2] stood at 1.2 ± 0.01.

With `CC[C@H](C)[C@H](NC(C)=O)C(=O)N[C@@H](CC(C)C)C(=O)N[C@@H](CCC(N)=O)C(=O)N[C@]1(C)CCCCCCC=CCCC[C@@](C)(C(=O)N[C@@H](Cc2c[nH]cn2)C(=O)N[C@@H](Cc2ccc(O)cc2)C(=O)N[C@@H](CCC(N)=O)C(N)=O)NC(=O)[C@H](CO)NC(=O)[C@H](Cc2ccccc2)NC(=O)[C@H](C)NC(=O)[C@H](C)NC(=O)[C@H](CCC(=O)O)NC(=O)[C@H](Cc2ccc(O)cc2)NC1=O` [FP07859] (Ac-ILQ[R8]YEAAFS[S5]HYQ-NH2; staple 4-11), the “Helicon in cells ± SD (%)” value in the series on Expi293 cells [1] is 0.1 ± 0.0%. Also, in the series with Expi293 cells [2], the “CellTiter-Glo fold change ± SD” value is on record as 1.2 ± 0.02.

With `CCCC[C@H](NC(=O)[C@@H](NC(C)=O)[C@@H](C)CC)C(=O)N[C@@H](C)C(=O)N[C@]1(C)CCCCCCC=CCCC[C@@](C)(C(=O)N[C@@H](CCC(N)=O)C(=O)N[C@@H](Cc2ccc(O)cc2)C(=O)N[C@@H](CC(N)=O)C(N)=O)NC(=O)[C@H](Cc2c[nH]c3ccccc23)NC(=O)[C@H](Cc2ccccc2)NC(=O)[C@H](C)NC(=O)[C@H](C)NC(=O)[C@H](CCC(N)=O)NC(=O)[C@H](Cc2ccc(O)cc2)NC1=O` [FP08024] (Ac-I[Nle]A[R8]YQAAFW[S5]QYN-NH2; staple 4-11), the “Helicon in cells ± SD (%)” value in the series with Expi293 cells [1] was 6.5 ± 0.5%. The “CellTiter-Glo fold change ± SD” value in the series on Expi293 cells [2] came out at 1.2 ± 0.00.
